The results in this text go back to US5733913A, “6-Aryl pyrido[2,3-d] pyrimidines and naphthyridines for inhibiting protein tyrosine kinase mediated cellular proliferation” (priority 1995, dated 1998).

One test addresses T1, C-src kinase (Homo sapiens, UniProt P12931).
T1 construct: made in house; host or cells: baculovirus-infected insect cells
Description: C-src kinase assay. Format: biochemical. The conditions noted are these: read-out: Inhibition of Protein Tyrosine Kinases, C-src, IC50. The method in brief:
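Baculovirus-expressed c-src immunopurified on antibody-coated latex beads, assayed in 40 mM Tris pH 7.5, 5 mM MgCl2 with poly GluTyr substrate and 5 μM ATP plus 32P-ATP. Reaction 10 min at room temperature, TCA-quenched, filtered; incorporated label counted by scintillation.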

Test [1] concerns Rat aorta smooth muscle cells (RASMC). Description: [3H]-Thymidine incorporation assay in RASMC. It counts as cell-based. Conditions: read-out: Inhibition of Growth Factor Stimulated Uptake of [3H]-thymidine (IC50). As for the experimental part: Cell Culture Rat aorta smooth muscle cells (RASMC) were isolated from the thoracic aorta of rats and explanted according to the method of Ross, J. Cell. Biol., 30:172-186 (1971). Cells were grown in Dulbecco's modified Eagle's medium (DMEM, Gibco) containing 10% fetal calf serum (FBS, Hyclone, Logan, Utah), 1% glutamine (Gibco) and 1% penicillin/streptomycin (Gibco). Cells were identified as smooth muscle cells by their "hill and valley" growth pattern and by fluorescent staining with a monoclonal antibody specific for SMC […] (Sigma). RASMC were used between passages 5 and 20 for all experiments. Test compounds were prepared in dimethylsulfoxide (DMSO) in order to achieve consistency in the vehicle and to ensure compound solubility. Appropriate DMSO controls were simultaneously evaluated with the test compounds. […] RASMC were plated into a 24-well plate (30,000 cells/well) in DMEM with 10% FBS. After 4 days, cells reached confluence and were made quiescent by incubation in DMEM/F12 medium (Gibco) containing 0.2% FBS for another 2 days. […] […] The acid-insoluble fraction was lysed in 0.75 mL 0.25N NaOH and the radioactivity determined by liquid scintillation counting. IC50 values were determined graphically.

A further test has as its system V-src kinase. Description: V-src kinase assay. The conditions noted are these: at 50 μM. It counts as biochemical. Summed up: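 Baculovirus-expressed v-src or c-src, immunopurified on antibody-coated latex beads, phosphorylated poly GluTyr with 5 μM ATP including [32P]-ATP in Tris pH 7.5/MgCl2. Reaction ran 10 min at room temperature, TCA/pyrophosphate quench, then filtered. Incorporated label counted by liquid scintillation and compared with solvent control.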

The target in test [2] is T2, mouse PDGF-β receptor tyrosine kinase (Mus musculus, UniProt P05622).
T2 construct: a fragment of DNA that codes for the intracellular tyrosine kinase domain; made in house; host or cells: Sf9 insect cells (baculovirus), cell lysate
T2 sequence (P05622 599-961 limits assumed): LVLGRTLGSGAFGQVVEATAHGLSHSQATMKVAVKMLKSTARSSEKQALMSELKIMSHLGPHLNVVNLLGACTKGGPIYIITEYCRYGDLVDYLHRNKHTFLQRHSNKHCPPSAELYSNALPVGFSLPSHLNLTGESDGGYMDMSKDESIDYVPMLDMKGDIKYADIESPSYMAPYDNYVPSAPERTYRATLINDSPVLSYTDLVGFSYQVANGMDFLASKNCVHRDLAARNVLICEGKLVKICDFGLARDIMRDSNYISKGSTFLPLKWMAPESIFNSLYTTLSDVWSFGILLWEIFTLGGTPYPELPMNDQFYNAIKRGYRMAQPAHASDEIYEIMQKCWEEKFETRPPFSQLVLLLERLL
Description: PDGF receptor tyrosine kinase assay. Format: biochemical. The conditions noted are these: read-out: Inhibition of Protein Tyrosine Kinases, PDGF, IC50. Summed up:
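Intracellular kinase domains expressed in baculovirus-infected SF9 cells; crude lysate used as enzyme. Inhibitor preincubated 10 min at 25 °C with lysate in pH 7.0 Hepes buffer with 10 mM MnCl2 and poly(Glu-Tyr) 4:1, then γ-32P-ATP (50 μM ATP) added for 10 min at 25 °C. TCA-precipitated 32P on filters counted, no-enzyme background subtracted.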

Each structure is given as a SMILES string. pIC50: −log10 of the molar value. Where two headings read alike, the source gives them in different places. Where only a bound is given, the exact number is not on record here.

T1 sequence (P12931 whole entry): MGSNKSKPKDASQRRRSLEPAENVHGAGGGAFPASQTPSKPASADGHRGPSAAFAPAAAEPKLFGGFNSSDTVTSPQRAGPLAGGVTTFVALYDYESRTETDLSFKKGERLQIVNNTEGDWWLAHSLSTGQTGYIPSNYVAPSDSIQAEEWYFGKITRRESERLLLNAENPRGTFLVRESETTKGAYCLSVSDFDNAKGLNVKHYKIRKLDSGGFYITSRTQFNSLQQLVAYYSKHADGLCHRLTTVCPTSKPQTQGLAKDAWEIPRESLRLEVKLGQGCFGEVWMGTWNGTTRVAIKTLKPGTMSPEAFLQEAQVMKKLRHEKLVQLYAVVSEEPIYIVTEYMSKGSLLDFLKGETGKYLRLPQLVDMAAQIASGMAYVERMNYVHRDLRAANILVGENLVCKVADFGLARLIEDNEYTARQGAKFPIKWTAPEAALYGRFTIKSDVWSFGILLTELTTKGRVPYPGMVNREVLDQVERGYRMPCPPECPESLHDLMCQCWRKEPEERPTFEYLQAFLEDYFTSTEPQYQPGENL

On to `Cc1ccccc1-c1cc2cnc(N)nc2nc1N` [Example 90, 6-o-Tolyl-pyrido[2,3-d]pyrimidine-2,7-diamine], for which the negative-log IC50 (pIC50) was 5.79 at C-src kinase, 4.70 in test [1] (FGF stimulated), under 5.00 in test [1] (PDGF stimulated) and 5.10 in test [2]. Further, in the test on V-src kinase, the “Inhibition of Protein Tyrosine Kinases, V-src, % Inhibition” value is 16.8%.
